Reference: ChEMBL document CHEMBL1159293, “Additional bioactive acetogenins, annomutacin and (2,4-trans and cis)-10R-annonacin-A-ones, from the leaves of Annona muricata” (J Nat Prod, 1995)
≈ marks a conversion by molar mass, not a printed value.

Legend:
A549 = assay: Cytotoxicity against human A549 cells after 7 days by MTT assay; assay type: functional; conditions: A549, 168 h, read-out: ED50 (the source's name)
HT-29 = assay: Cytotoxicity against human HT-29 cells after 7 days by MTT assay; assay type: functional; conditions: HT-29, 168 h, read-out: ED50 (the source's name)
MCF7 = assay: Cytotoxicity against human MCF7 cells after 7 days by MTT assay; assay type: functional; conditions: MCF7, 168 h, read-out: ED50 (the source's name)
[1] = (§1) Toxicity to brine shrimp; assay type: organism-based; conditions: artemia, in vivo
Artemia = assay: as §1; assay type: organism-based; conditions: in vivo

Row | SMILES | EC50 (A549) [µg/mL] | EC50 (HT-29) [µg/mL] | EC50 (MCF7) [µg/mL] | LC50 [1] [µg/mL] | LC50 (Artemia) [×10⁻² ug/ml]
1 | CCCCCCCCCCCC[C@H](O)[C@H]1CC[C@H]([C@H](O)CCCC[C@H](O)CCCCC[C@@H]2C[C@@H](CC(C)=O)C(=O)O2)O1 | 0.174 (≈ 0.292 µM) | > 1 | 0.57 (≈ 0.955 µM) | 0.112 (≈ 0.188 µM) | 
2 | CCCCCCCCCCCC[C@H](O)[C@H]1CC[C@H]([C@H](O)CCCC[C@H](O)CCCCC[C@@H]2C[C@H](CC(C)=O)C(=O)O2)O1 | 0.174 (≈ 0.292 µM) | > 1 | 0.57 (≈ 0.955 µM) | 0.112 (≈ 0.188 µM) | 
3 | CCCCCCCCCCCC[C@H](O)[C@@H]1CC[C@@H]([C@@H](O)CCCCCCC(O)CCCCC[C@@H](O)CC2=C[C@H](C)OC2=O)O1 (stereo partly drawn) [ANNOMONTACIN] | 0.0157 (≈ 0.0251 µM) | > 1 | > 1 |  | 3.91
4 | COc1cccc2c1C(=O)c1c(O)c3c(c(O)c1C2=O)C[C@@](O)(C(=O)CO)C[C@@H]3O[C@H]1C[C@H](N)[C@H](O)[C@H](C)O1 [DOXORUBICIN] |  |  |  | 0.313 (≈ 0.576 µM) | 
